According to ChEMBL document CHEMBL1201862, “PubChem BioAssay data set” (2004):
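Five compound concentrations were applied to cells in 96-well plates for 48 hours; endpoints were derived by simple linear interpolation of the resulting dose-response curve. GI50 marks 50% less growth.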 Active and inactive are the calls of the source. No stated cut-off is given here; in the data, active = GI50 up to about 1.1 µM and inactive = higher.

How the values were obtained:
Test in all cases: inhibition of tumour cell growth, NCI panel, 48 h
SK-MEL-2 = tested on: SK-MEL-2
OVCAR-8 = tested on: OVCAR-8
SK-MEL-5 = tested on: SK-MEL-5
HCC 2998 = tested on: HCC 2998
TK-10 = tested on: TK-10
SN12C = tested on: SN12C
OVCAR-3 = tested on: OVCAR-3
OVCAR-4 = tested on: OVCAR-4
NCI-H226 = tested on: NCI-H226
PC-3 = tested on: PC-3
COLO 205 = tested on: COLO 205
K562 = tested on: K562
U-251 = tested on: U-251
SK-OV-3 = tested on: SK-OV-3
EKVX = tested on: EKVX
HOP-62 = tested on: HOP-62
A498 = tested on: A498
OVCAR-5 = tested on: OVCAR-5
SF-268 = tested on: SF-268
A549 = tested on: A549

Row | SMILES | GI50 (SK-MEL-2) | GI50 (OVCAR-8) | GI50 (SK-MEL-5) | GI50 (HCC 2998) | GI50 (TK-10) | GI50 (SN12C) | GI50 (OVCAR-3) | GI50 (OVCAR-4) | GI50 (NCI-H226) | GI50 (PC-3) | GI50 (COLO 205) | GI50 (K562) | GI50 (U-251) | GI50 (SK-OV-3) | GI50 (EKVX) | GI50 (HOP-62) | GI50 (A498) | GI50 (OVCAR-5) | GI50 (SF-268) | GI50 (A549)
1 | CC1CC(C)CN(S(=O)(=O)c2cc(Cl)c(Oc3ccc([N+](=O)[O-])cc3Cl)c(Cl)c2)C1 (stereo not given) | > 100 µM (inactive) | > 100 µM (inactive) | > 100 µM (inactive) | > 100 µM (inactive) | > 100 µM (inactive) | > 100 µM (inactive) | > 100 µM (inactive) | > 100 µM (inactive) | > 100 µM (inactive) | > 100 µM (inactive) | > 100 µM (inactive) | > 100 µM (inactive) | > 100 µM (inactive) | > 100 µM (inactive) | > 100 µM (inactive) | > 100 µM (inactive) | > 100 µM (inactive) | > 100 µM (inactive) | > 100 µM (inactive) | > 100 µM (inactive)
2 | COc1ccc2c(c1)C(=O)CCc1cc(OC)c(OC)c(OC)c1-2 | 0.0818 µM (active) | 0.0513 µM (active) | 0.0521 µM (active) | 0.0412 µM (active) | 15.1 µM (inactive) | 0.0649 µM (active) | 0.0409 µM (active) | 0.0582 µM (active) | 0.0258 µM (active) | 0.0474 µM (active) | 0.0512 µM (active) | 0.0366 µM (active) | 0.0285 µM (active) | < 0.01 µM (active) | 0.045 µM (active) | 0.0662 µM (active) | 0.0504 µM (active) | 0.0783 µM (active) | 0.0948 µM (active) | 0.0687 µM (active)
